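Where inhibition never reached the appropriate level, the endpoint shown equals the highest concentration tested. Otherwise, values were interpolated linearly from a five-concentration, 48-hour dose response in 96-well plates. GI50: concentration for 50% inhibition of growth.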 Active and inactive are the calls of the source. No stated cut-off is given here; in the data, active = GI50 up to about 1.1 µM and inactive = higher. Starred links: 1 amine or outer side, 2 acyl side, 3 side chain; linkers in the order of their positions; H or OH if unused. Non-standard residues stand in square brackets, D forms with d. Residues, ends and D or L forms follow the SMILES beside them. X4 = C[C@H](N[*:1])C(=O)C(C)(C)C(=O)[*:2]; Hmpa(2S,3S) = CC[C@H](C)[C@H](O)C(=O)O; NMeY = CN[C@@H](Cc1ccc(O)cc1)C(=O)O; NMeL = CN[C@@H](CC(C)C)C(=O)O; NMeV = CN[C@H](C(=O)O)C(C)C; βAla = NCCC(=O)O
Key:
Test in all cases: NCI anticancer screen, dose series, 48 h
Malme-3M = system: Malme-3M
DU-145 = system: DU-145
SNB-19 = system: SNB-19
UACC-62 = system: UACC-62
NCI/ADR-RES = system: NCI/ADR-RES
MOLT-4 = system: MOLT-4
NCI-H23 = system: NCI-H23
ACHN = system: ACHN
SK-MEL-28 = system: SK-MEL-28
HCT-116 = system: HCT-116
SNB-75 = system: SNB-75
PC-3 = system: PC-3
OVCAR-3 = system: OVCAR-3
K562 = system: K562
UO-31 = system: UO-31
SR = system: SR
SF-295 = system: SF-295
Hs-578T = system: Hs-578T
LOX IMVI = system: LOX IMVI
M14 = system: M14

Structure (SMILES) | GI50 (Malme-3M) | GI50 (DU-145) | GI50 (SNB-19) | GI50 (UACC-62) | GI50 (NCI/ADR-RES) | GI50 (MOLT-4) | GI50 (NCI-H23) | GI50 (ACHN) | GI50 (SK-MEL-28) | GI50 (HCT-116) | GI50 (SNB-75) | GI50 (PC-3) | GI50 (OVCAR-3) | GI50 (K562) | GI50 (UO-31) | GI50 (SR) | GI50 (SF-295) | GI50 (Hs-578T) | GI50 (LOX IMVI) | GI50 (M14)
CC[C@@H]1/C=C/C=C/C[C@H](C)[C@@H](O)[C@](C)(O)C(=O)[C@H](C)[C@@H](O)[C@H](C)C(=O)[C@H](C)[C@@H](O)[C@H](C)/C=C/C(=O)O[C@H]2[C@@H](C)[C@@H](CC1)O[C@]1(O[C@H](CC(C)O)[C@H](C)CC1=O)[C@@H]2C (stereo not given in full) | 4.93 µM (inactive) | 3.3 µM (inactive) | < 0.0025 µM (active) | 3.22 µM (inactive) | 0.598 µM (active) | 3.82 µM (inactive) | < 0.0025 µM (active) | 2.65 µM (inactive) | 6 µM (inactive) | 2.62 µM (inactive) | 0.871 µM (active) | < 0.0025 µM (active) | 2.92 µM (inactive) | < 0.0025 µM (active) | 2.81 µM (inactive) | 4.13 µM (inactive) | < 0.0025 µM (active) | 5.36 µM (inactive) | 3.99 µM (inactive) | 3.14 µM (inactive)
C1C2CC3CC1CC(Nc1nc(NC45CC6CC(CC(C6)C4)C5)nc(NC45CC6CC(CC(C6)C4)C5)n1)(C2)C3 | > 100 µM (inactive) | 42 µM (inactive) | 43.5 µM (inactive) | > 44.7 µM (inactive) | 9.31 µM (inactive) | 57.3 µM (inactive) | > 43.9 µM (inactive) | 51.2 µM (inactive) | > 31.1 µM (inactive) | > 51.9 µM (inactive) | 16.9 µM (inactive) | > 67.3 µM (inactive) | > 23.6 µM (inactive) | > 62.5 µM (inactive) | > 38.3 µM (inactive) | 51.2 µM (inactive) | > 56.1 µM (inactive) | 43.4 µM (inactive) | 11.1 µM (inactive) | 44 µM (inactive)
Cc1cc2ncn(CC(=O)O)c2cc1C | > 100 µM (inactive) | > 100 µM (inactive) | > 100 µM (inactive) | > 100 µM (inactive) | > 100 µM (inactive) | > 100 µM (inactive) | > 100 µM (inactive) | > 100 µM (inactive) | > 100 µM (inactive) | > 100 µM (inactive) | > 100 µM (inactive) | > 100 µM (inactive) | > 100 µM (inactive) | > 100 µM (inactive) | > 100 µM (inactive) | > 100 µM (inactive) | > 100 µM (inactive) | > 100 µM (inactive) | > 100 µM (inactive) | > 100 µM (inactive)
CCOP(=O)(OCC)C(c1ccc(F)cc1)N(C(=O)NC(F)(F)F)c1cccc(C(F)(F)F)c1 (stereo not given) | > 100 µM (inactive) | > 100 µM (inactive) | 77.3 µM (inactive) | 72.8 µM (inactive) | 82.8 µM (inactive) | 61.9 µM (inactive) | > 100 µM (inactive) | > 100 µM (inactive) | > 100 µM (inactive) | 84.3 µM (inactive) | 46.9 µM (inactive) | > 100 µM (inactive) | > 100 µM (inactive) | 50.2 µM (inactive) | 94.8 µM (inactive) | 75.3 µM (inactive) | > 100 µM (inactive) | 59.8 µM (inactive) | > 100 µM (inactive) | > 100 µM (inactive)
COc1cc(C2C3=C(COC3=O)Oc3cc4c(cc32)OCO4)ccc1OC(C)=O (stereo not given) | 0.0893 µM (active) | 0.492 µM (active) | 0.35 µM (active) | 0.54 µM (active) | 0.279 µM (active) | 0.536 µM (active) | 0.67 µM (active) | 0.55 µM (active) | 10.8 µM (inactive) | 0.398 µM (active) | 0.168 µM (active) | 0.186 µM (active) | 0.244 µM (active) | 0.13 µM (active) | 0.352 µM (active) | 0.179 µM (active) | 0.127 µM (active) | 0.112 µM (active) | 0.708 µM (active) | 0.498 µM (active)
[N-]=[N+]=CC(=O)OC1Cc2ccccc2C1 | > 100 µM (inactive) | 21.1 µM (inactive) | > 100 µM (inactive) | > 100 µM (inactive) | > 100 µM (inactive) | > 100 µM (inactive) | > 100 µM (inactive) | 27.7 µM (inactive) | > 100 µM (inactive) | > 100 µM (inactive) | 50.4 µM (inactive) | > 95.7 µM (inactive) | > 100 µM (inactive) | > 100 µM (inactive) | 16.6 µM (inactive) | > 100 µM (inactive) | 61.9 µM (inactive) | 42.9 µM (inactive) | > 100 µM (inactive) | > 100 µM (inactive)
O=C(CN1CCOCC1)CC(O)(C(F)(F)F)C(F)(F)F | > 100 µM (inactive) | > 100 µM (inactive) | 65.9 µM (inactive) | 44.6 µM (inactive) | > 100 µM (inactive) | 37.2 µM (inactive) | 33.5 µM (inactive) | 92.5 µM (inactive) | > 100 µM (inactive) | 44.9 µM (inactive) | 38.6 µM (inactive) | 32.1 µM (inactive) | 35.9 µM (inactive) | 55.1 µM (inactive) | 51.3 µM (inactive) | 79.4 µM (inactive) | 67 µM (inactive) | 35.6 µM (inactive) | 46 µM (inactive) | > 100 µM (inactive)
COC(=O)c1c(C(=O)OC)c2ccccn2c1-c1cc(C)cc2c1C(=O)C=CC2=O | 10.2 µM (inactive) | 14 µM (inactive) | 13.7 µM (inactive) | 11.7 µM (inactive) | 15.6 µM (inactive) | 1.38 µM (inactive) | 8.09 µM (inactive) | 12.6 µM (inactive) | 12.9 µM (inactive) | 10.7 µM (inactive) | 16.4 µM (inactive) | 14 µM (inactive) | 11 µM (inactive) | 2.67 µM (inactive) | 2.38 µM (inactive) | 3.93 µM (inactive) | 12.2 µM (inactive) | 12.9 µM (inactive) | > 10 µM (inactive) | 9.48 µM (inactive)
CC[C@H](C)[C@@H]1OC(=O)CCNC(=O)[C@@H](C)NC(=O)C(C)(C)C(=O)[C@H](C)NC(=O)[C@H](Cc2ccc(OC)cc2)N(C)C(=O)[C@H](C(C)C)N(C)C(=O)CNC(=O)[C@H](CC(C)C)N(C)C(=O)CNC1=O (cyclo(G[NMeL]G[NMeV][NMeY](Me)[X4][dA][βAla][Hmpa(2S,3S)])) | 0.217 µM (active) | 2.71 µM (inactive) | 0.111 µM (active) | 0.294 µM (active) | 26.4 µM (inactive) | 2.4 µM (inactive) | 0.262 µM (active) | 3.1 µM (inactive) | 0.15 µM (active) | 0.0352 µM (active) | 0.348 µM (active) | 0.31 µM (active) | 0.621 µM (active) | 0.0389 µM (active) | 7.76 µM (inactive) | 0.337 µM (active) | 0.306 µM (active) | 0.916 µM (active) | 0.175 µM (active) | 0.885 µM (active)

From ChEMBL document CHEMBL1201862, “PubChem BioAssay data set” (2004)
